In patent US9506926B2, “Molecular predictors of therapeutic response to specific anti-cancer agents” (The Regents of the University of California, priority 2011, dated 2016):
“Also recorded” adds a separate entry of the source.

Test system: breast cancer cell lines
Assay: Cell growth inhibition assay (Cell Titer Glo, 72 h drug exposure, GI50) across a breast cancer cell line panel, with subtype, copy number and growth rate association analysis
Type: cell-based, human
Details: for Subtype specificity: Table 1, most sensitive cell line subtype, q<0.10 deemed significant; for Molecular Subtype in which the compound shows Preferential Activity: Table 7 summary; for Subtype-preferential activity in breast cancer cell lines (in words): running text and figure legends, response as −log10(GI50); for Association of response with growth rate (doubling time): 2-way ANCOVA of cell line class and growth rate; for Association of 17q12 (ERBB2) amplification with compound response / Association of 20q13 (STK15/AURKA) amplification with compound response: high amplification vs. low or no amplification, t-test; for Response of the cell line panel as a whole: compounds excluded from further analysis

| Structure (SMILES) | Subtype specificity | Subtype-preferential activity in breast cancer cell lines (in words) | also measured |
| --- | --- | --- | --- |
| CS(=O)(=O)CCNCc1ccc(-c2ccc3ncnc(Nc4ccc(OCc5cccc(F)c5)c(Cl)c4)c3c2)o1 [Lapatinib] | Luminal/ERBB2AMP |  |  |
| CCNCCCNC/C=C\CNCCCNCC [CGC-11047] | Basal |  |  |
| CC(/C=C/C(=O)NO)=C\[C@@H](C)C(=O)c1ccc(N(C)C)cc1 [Trichostatin A] | Luminal | preferentially active in luminal class cell lines | Molecular Subtype in which the compound shows Preferential Activity: Luminal (ER+/PR+) |
| CC(=O)O[C@@]12CO[C@@H]1C[C@H](O)[C@@]1(C)C(=O)[C@H](O)C3=C(C)[C@@H](OC(=O)[C@H](O)[C@@H](NC(=O)OC(C)(C)C)c4ccccc4)C[C@@](O)([C@@H](OC(=O)c4ccccc4)[C@H]21)C3(C)C [Docetaxel] | Basal/Claudin-low | preferential activity in basal or claudin-low cell lines |  |
| CCN(CC)CCCCNc1ncc2cc(-c3cc(OC)cc(OC)c3)c(NC(=O)NC(C)(C)C)nc2n1 [PD173074] | Claudin-low |  |  |
| O=c1[nH]cc(F)c(=O)[nH]1 [5-FU, Fluorouracil] |  |  | Association of response with growth rate (doubling time): strong effects of both subtype and growth rate on response; Association of response with growth rate (doubling time) (listed as 5-florouracil): strong significance in the ANCOVA model for both class and doubling time; also recorded: decreases as doubling time increases; Association of response with growth rate (doubling time) (listed as Fluorouracil): active against cell lines with rapid growth rates; also recorded: active against cell lines that grow more quickly; Shift of mean sensitivity between luminal and basal subtypes (ANCOVA model, FIG. 4B): shifts by approximately one log; Molecular Subtype in which the compound shows Preferential Activity: KI67+ tumors; Subtype-preferential activity in breast cancer cell lines (in words) (listed as 5-florouracil): not significant in the subtype test alone; Subtype-preferential activity in breast cancer cell lines (in words) (listed as Fluoruracil): more effective against basal cell lines (both triple negative and claudin-low) than against luminal cell lines |
| CN(C)C/C=C/C(=O)Nc1cc2c(Nc3ccc(F)c(Cl)c3)ncnc2cc1O[C@H]1CCOC1 [BIBW 2992] | ERBB2AMP |  | Association of 17q12 (ERBB2) amplification with compound response: associated with sensitivity |
| C=CCNC1=C2C[C@@H](C)C[C@H](OC)[C@H](O)[C@@H](C)/C=C(\C)[C@H](OC(N)=O)[C@@H](OC)/C=C\C=C(/C)C(=O)NC(=CC1=O)C2=O [17-AAG] | ERBB2AMP |  | Association of 17q12 (ERBB2) amplification with compound response: associated with sensitivity |
| O=C1c2ccccc2-[n+]2ccc3c([nH]c4ccccc43)c21 [Fascaplysin] | Luminal |  |  |
| NS(=O)(=O)c1ccc(Nc2nc(OCC3CCCCC3)c3[nH]cnc3n2)cc1 [NU6102] |  |  | Association of 17q12 (ERBB2) amplification with compound response: associated with resistance |
| C#Cc1cccc(Nc2ncnc3cc(OCCOC)c(OCCOC)cc23)c1 [Erlotinib] | Basal | preferentially active in basal class cell lines | Molecular Subtype in which the compound shows Preferential Activity: Basal (ER−/PR−/HER2−Claudin+) |
| O=c1cc(-c2ccccc2)oc2cc(O)c(O)c(O)c12 [baicalein] |  |  | Response of the cell line panel as a whole: almost none of the cell lines in the panel responded strongly |
| O=c1[nH]c2ccccc2n1C1CCN(Cc2ccc(-c3nc4cc5[nH]cnc5cc4nc3-c3ccccc3)cc2)CC1 [Sigma AKT1-2 inhibitor] | Luminal | Luminal and ERBB2AMP cell lines preferentially respond |  |
| COc1ncc(-c2ccc3nccc(-c4ccnnc4)c3c2)cc1NS(=O)(=O)c1ccc(F)cc1F [GSK2126458] | Luminal/ERBB2AMP |  |  |
| O=C(Nc1cc(Cl)cc2c1[nH]c1cnccc12)c1cccnc1 [PS1145] |  |  | Response of the cell line panel as a whole: almost none of the cell lines in the panel responded strongly |
| CO[C@H]1C[C@@H]2CC[C@@H](C)[C@@](O)(O2)C(=O)C(=O)N2CCCC[C@H]2C(=O)O[C@H]([C@H](C)C[C@@H]2CC[C@@H](OC(=O)C(C)(CO)CO)[C@H](OC)C2)CC(=O)[C@H](C)/C=C(\C)[C@@H](O)[C@@H](OC)C(=O)[C@H](C)C[C@H](C)/C=C/C=C/C=C/1C [Temsirolimus] | Luminal |  |  |
| CCn1cc(-c2ccnc3[nH]c(-c4cccc(CN(C)C)c4)cc23)c(-c2ccc(NC(=O)N(C)C)cc2)n1 [GSK1070916] | Claudin-low | more active against basal and/or claudin-low cell lines | Molecular Subtype in which the compound shows Preferential Activity: Claudin-low; also recorded: Tumors with low or no 20q13 amplification; Association of 20q13 (STK15/AURKA) amplification with compound response: is associated with; also recorded: associated with resistance; Association of 20q13 (STK15/AURKA) amplification with compound response (listed as GSK.AUR1): less effective in tumors that have genomic DNA copy number amplifications at 20q13; Subtype-preferential activity in breast cancer cell lines (in words) (listed as GSK.AUR1): preferentially active against Claudin-low cell lines |
| COc1cc([C@@H]2c3cc4c(cc3[C@@H](O[C@@H]3O[C@@H]5CO[C@@H](C)O[C@H]5[C@H](O)[C@H]3O)[C@H]3COC(=O)[C@H]23)OCO4)cc(OC)c1O [Etoposide] | Claudin-low | preferential activity in basal or claudin-low cell lines |  |
| Cc1[nH]c2ccccc2c1CCNCc1ccc(/C=C/C(=O)NO)cc1 [LBH589] | Luminal |  |  |
| COc1cc2ncnc(Nc3cccc(Cl)c3)c2cc1OC [AG1478] | ERBB2AMP |  |  |
| N.N.[Cl][Pt][Cl] [Cisplatin] | Basal/Claudin-low | basal cell line sensitivity; also recorded: preferential activity in basal or claudin-low cell lines |  |
| COc1cc2ncnc(Nc3ccc(F)c(Cl)c3)c2cc1OCCCN1CCOCC1 [Gefitinib] | ERBB2AMP |  | Association of 17q12 (ERBB2) amplification with compound response: associated with sensitivity |
| O=C(CCCCCCC(=O)Nc1ccccc1)NO [Vorinostat] | Luminal | preferentially active in luminal class cell lines | Molecular Subtype in which the compound shows Preferential Activity: Luminal (ER+/PR+) |
| Cc1cc(Nc2cc(N3CCN(C)CC3)nc(Sc3ccc(NC(=O)C4CC4)cc3)n2)n[nH]1 [VX-680] | not ERBB2AMP |  |  |
